Test results as given in PMC6941952, “A homogeneous bioluminescent immunoassay to probe cellular signaling pathway regulation” (Communications Biology, 2020).
Several values for one entry are separate records, joined by “and”; a condition that tells them apart may be missing. Equal values may be shown once.

How the values were obtained:
Parameters in all cases: species or system human
AKT Phospho-Ser473 = test: NanoBiT p-AKT cell-based immunoassay in MCF-7 cells
Procedure: (§1) Prior to NanoBiT Cell-Based Immunoassay, 50,000 cells were seeded in 160 µl of complete growth media per well of a 96-well plate and incubated overnight. The cells were checked under microscope and it was determined that 50,000 cells per well in 96-well plate is under 90% confluency for all cells tested. If necessary, the cell culture media were replaced with serum-free media after the cells were stably adherent on the plate and incubated overnight. To treat cells with activators or inhibitors, medium was changed to 30 µl of medium containing inhibitors. If activation of a specific pathway is needed, the cells were stimulated with 10 µl of medium containing activators. To lyse the cells, 10 µl of lysis buffer containing 0.1% digitonin diluted in 1X immunoassay buffer with protease and phosphatase inhibitors was added and the plates were mixed vigorously for 20 min. Then, 50 µl of an antibody mix containing two primary antibodies against the target protein and NanoBiT detecting antibodies (0.3 µl each per well), diluted in 1X immunoassay buffer was added to the lysates. The plates were incubated at 23 °C for 90 min, followed by the addition of 25 µl of Nano-Glo® reagent consisting of Nano-Glo® Luciferase Assay Substrate mixed with 1X immunoassay buffer. Luminescence was measured using a plate-reading luminometer.
(§2) Single dose or dose response inhibitor treatments were performed prior to activation of the pathways as follows. For IκBα, the cells were treated in 30 µl medium with IKK16 or MG132 for 60 min before the addition of 10 µl of DMEM containing appropriate concentration of TNFα. To measure phosphorylation of AKT or STAT3, the corresponding NanoBiT immunoassays were developed with MCF-7 or A431 cells, respectively, according the same scheme used to develop the IκBα assay using the primary antibodies for AKT and STAT3 described in the reagents section. For the AKT assay, MCF-7 cells were incubated overnight in phenol-red free DMEM medium (Gibco #21063-029) without serum. Treatment with LY294002 was performed in 30 µl medium and cells were incubated for 60 min before the addition of 1 µM Insulin. To measure STAT3 phosphorylation, A431 cells were incubated overnight in DMEM medium without serum. […] After addition of the stimulators, the cells were incubated for additional times as follows. IκBα phosphorylation and degradation analyses required both time courses and single time points as described in figures. […] The NanoBiT immunoassay protocol was followed as described above.
(§3) All 96-well assay plates were read using a GloMax® 96 Microplate Luminometer from Promega. The instrument was set to 0.5 s integration time. In order to obtain net change of signal, the reagent background values (signal from the well containing all reagent except primary antibodies) were subtracted from the sample values. To plot and analyze the data, Microsoft Excel and GraphPad Prism® Software were used. IC50 values were determined by using a nonlinear regression fit to a sigmoidal dose response (variable slope).

total AKT = test: NanoBiT cell-based immunoassay, total AKT in MCF-7 cells
Procedure: as §1, §2, §3

STAT3 Phospho-Tyr705 = test: NanoBiT pSTAT3 cell-based immunoassay in A431 cells; details: substance alone
Method in brief: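 Cells were lysed in 0.1% digitonin buffer, then target protein was detected with two primary antibodies plus NanoBiT detection antibodies (90 min, 23 °C), read as luminescence minus reagent background. For pSTAT3, A431 cells were serum-starved overnight before inhibitor and stimulator. For IκBα, MCF-7 cells got inhibitor for 60 min before TNFα. IC50 came from variable-slope sigmoidal fits.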

total STAT3 = test: NanoBiT cell-based immunoassay, total STAT3 in A431 cells; details: substance alone
Procedure: as §1, with “The cells were checked under microscope and it was determined that 50,000 cells per well in 96-well plate is under 90% confluency for all cells tested.” left out
Single dose or dose response inhibitor treatments were performed prior to activation of the pathways as follows. For IκBα, the cells were treated in 30 µl medium with IKK16 or MG132 for 60 min before the addition of 10 µl of DMEM containing appropriate concentration of TNFα. To measure phosphorylation of AKT or STAT3, the corresponding NanoBiT immunoassays were developed with MCF-7 or A431 cells, respectively, according the same scheme used to develop the IκBα assay using the primary antibodies for AKT and STAT3 described in the reagents section. […] Treatment with LY294002 was performed in 30 µl medium and cells were incubated for 60 min before the addition of 1 µM Insulin. […]
All 96-well assay plates were read using a GloMax® 96 Microplate Luminometer from Promega. […] IC50 values were determined by using a nonlinear regression fit to a sigmoidal dose response (variable slope).

[1] = substance alone, background subtracted, average of replicates
[2] = substance alone, single replicates
[3] = background subtracted, average of replicates

| Substance | AKT phosphorylation over the level in non-treated cells (AKT Phospho-Ser473; MCF-7 cells, insulin 1 µM 10 min) | P-AKT, Average (AKT Phospho-Ser473; [1]) | P-AKT, Raw data (AKT Phospho-Ser473; [2]) | P-AKT, Subtract reagent background (AKT Phospho-Ser473; [2]) | total level of AKT protein (total AKT; MCF-7 cells, insulin 1 µM 10 min, LY294002 20 µM 1 h) | Total AKT, Average (total AKT; [1]) | Total AKT, Raw data (total AKT; [2]) | Total AKT, Subtract reagent background (total AKT; [2]) | P-STAT3, Average (STAT3 Phospho-Tyr705; [3]) | P-STAT3 Raw data (STAT3 Phospho-Tyr705; single replicates) | P-STAT3 Subtract reagent background (STAT3 Phospho-Tyr705; single replicates) | Total STAT3, Average (total STAT3; [3]) | Total Stat3, Raw data (total STAT3; single replicates) | Total Stat3, Subtract reagent background (total STAT3; single replicates) |
| --- | --- | --- | --- | --- | --- | --- | --- | --- | --- | --- | --- | --- | --- | --- |
| insulin: Insulin (#I-0516) from Sigma-Aldrich, AKT pathway stimulator | more than 20 fold | 2201625 | 2263000 and 2421000 and 2357000 and 2406000 | 2102700 and 2260800 and 2195400 and 2247600 | stayed constant | 108225 | 265700 and 270200 and 257000 and 278000 | 121700 and 104800 and 109800 and 96600 |  |  |  |  |  |  |
| IL-6 |  |  |  |  |  |  |  |  | 418850 | 458600 and 528900 and 577100 | 355917 and 426217 and 474417 | 1196983 | 1090000 and 1448000 | 1345317 and 987317 |
